Measured values: BindingDB's records for doi:10.1038/sj.npp.1300819 (Case Western Reserve University, 2006)

What was measured:
[1] = target: 5-hydroxytryptamine receptor 2B (Homo sapiens, UniProt P41595)
[2] = target: Alpha-2A adrenergic receptor (Homo sapiens, UniProt P08913)
[3] = target: 5-hydroxytryptamine receptor 1A (Homo sapiens, UniProt P08908)
[4] = target: 5-hydroxytryptamine receptor 2A (Rattus norvegicus, UniProt P14842)
D(4) dopamine receptor = D(4) dopamine receptor (Homo sapiens, UniProt P21917)
[5] = target: Sodium-dependent serotonin transporter (Homo sapiens, UniProt P31645)
[6] = target: 5-hydroxytryptamine receptor 6 (Homo sapiens, UniProt P50406)
5-hydroxytryptamine receptor 6, sequence (P50406 whole entry): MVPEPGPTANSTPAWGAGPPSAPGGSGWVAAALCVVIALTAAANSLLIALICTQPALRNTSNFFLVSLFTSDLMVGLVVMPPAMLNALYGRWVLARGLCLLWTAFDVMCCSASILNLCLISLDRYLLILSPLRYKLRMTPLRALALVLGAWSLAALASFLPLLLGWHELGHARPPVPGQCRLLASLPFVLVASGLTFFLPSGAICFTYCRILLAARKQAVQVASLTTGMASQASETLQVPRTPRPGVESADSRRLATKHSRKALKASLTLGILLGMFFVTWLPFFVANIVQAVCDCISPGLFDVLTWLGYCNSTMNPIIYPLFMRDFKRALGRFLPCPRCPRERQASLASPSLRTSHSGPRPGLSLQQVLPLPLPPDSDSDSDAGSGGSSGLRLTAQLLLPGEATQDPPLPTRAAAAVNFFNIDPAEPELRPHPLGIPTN

D(1B) dopamine receptor = D(1B) dopamine receptor (Homo sapiens, UniProt P21918)
Histamine H1 receptor = Histamine H1 receptor (Homo sapiens, UniProt P35367)
[7] = target: 5-hydroxytryptamine receptor 1B (Rattus norvegicus, UniProt P28564)
5-hydroxytryptamine receptor 1B, sequence (P28564 whole entry): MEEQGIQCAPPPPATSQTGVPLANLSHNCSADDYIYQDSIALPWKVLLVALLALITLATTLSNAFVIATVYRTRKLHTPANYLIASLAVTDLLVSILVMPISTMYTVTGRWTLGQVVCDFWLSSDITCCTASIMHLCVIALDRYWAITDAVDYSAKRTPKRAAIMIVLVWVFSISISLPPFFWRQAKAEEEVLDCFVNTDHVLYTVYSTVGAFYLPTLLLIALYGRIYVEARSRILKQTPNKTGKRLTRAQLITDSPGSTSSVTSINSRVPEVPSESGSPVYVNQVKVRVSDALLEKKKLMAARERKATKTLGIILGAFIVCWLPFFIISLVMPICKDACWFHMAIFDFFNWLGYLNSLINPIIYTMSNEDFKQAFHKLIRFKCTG

[8] = target: Alpha-1B adrenergic receptor (Homo sapiens, UniProt P35368)
[9] = target: Sodium-dependent noradrenaline transporter (Homo sapiens, UniProt P23975)
Sodium-dependent noradrenaline transporter, sequence (P23975 whole entry): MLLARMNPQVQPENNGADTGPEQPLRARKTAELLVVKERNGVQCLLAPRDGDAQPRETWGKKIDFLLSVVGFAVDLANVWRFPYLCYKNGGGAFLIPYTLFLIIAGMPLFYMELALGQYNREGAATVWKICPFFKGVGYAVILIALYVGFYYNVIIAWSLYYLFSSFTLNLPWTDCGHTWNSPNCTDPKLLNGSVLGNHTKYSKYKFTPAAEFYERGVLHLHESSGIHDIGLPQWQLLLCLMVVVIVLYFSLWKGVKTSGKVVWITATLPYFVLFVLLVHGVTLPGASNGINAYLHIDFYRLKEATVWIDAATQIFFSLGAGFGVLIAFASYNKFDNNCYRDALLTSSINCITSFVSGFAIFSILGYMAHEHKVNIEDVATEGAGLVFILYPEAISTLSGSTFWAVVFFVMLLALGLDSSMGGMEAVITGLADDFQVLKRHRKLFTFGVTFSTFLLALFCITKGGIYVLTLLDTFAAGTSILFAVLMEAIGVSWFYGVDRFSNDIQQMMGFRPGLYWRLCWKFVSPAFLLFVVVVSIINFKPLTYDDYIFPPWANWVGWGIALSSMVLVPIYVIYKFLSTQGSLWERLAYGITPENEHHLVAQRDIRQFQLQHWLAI

[10] = target: Sodium-dependent dopamine transporter (Homo sapiens, UniProt Q01959)
Sodium-dependent dopamine transporter, sequence (Q01959 whole entry): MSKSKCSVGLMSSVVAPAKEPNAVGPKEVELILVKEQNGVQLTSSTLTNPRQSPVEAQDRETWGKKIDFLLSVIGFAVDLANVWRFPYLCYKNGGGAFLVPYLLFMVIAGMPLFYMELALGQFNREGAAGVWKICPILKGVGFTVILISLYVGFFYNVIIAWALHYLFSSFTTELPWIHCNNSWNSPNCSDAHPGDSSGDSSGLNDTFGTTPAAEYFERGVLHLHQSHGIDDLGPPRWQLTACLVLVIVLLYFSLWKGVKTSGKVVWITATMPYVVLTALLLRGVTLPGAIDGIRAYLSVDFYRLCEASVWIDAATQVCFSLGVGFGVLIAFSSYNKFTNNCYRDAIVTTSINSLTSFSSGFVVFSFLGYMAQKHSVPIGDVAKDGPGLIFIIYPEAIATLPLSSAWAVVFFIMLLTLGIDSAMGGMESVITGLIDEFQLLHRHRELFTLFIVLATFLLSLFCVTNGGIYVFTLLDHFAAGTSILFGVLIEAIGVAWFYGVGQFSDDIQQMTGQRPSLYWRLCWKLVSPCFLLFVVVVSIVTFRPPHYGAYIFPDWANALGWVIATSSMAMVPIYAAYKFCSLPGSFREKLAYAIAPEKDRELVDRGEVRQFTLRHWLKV

[11] = target: Alpha-1A adrenergic receptor (Homo sapiens, UniProt P35348)
D(1A) dopamine receptor = D(1A) dopamine receptor (Homo sapiens, UniProt P21728)
D(1A) dopamine receptor, sequence (P21728 whole entry): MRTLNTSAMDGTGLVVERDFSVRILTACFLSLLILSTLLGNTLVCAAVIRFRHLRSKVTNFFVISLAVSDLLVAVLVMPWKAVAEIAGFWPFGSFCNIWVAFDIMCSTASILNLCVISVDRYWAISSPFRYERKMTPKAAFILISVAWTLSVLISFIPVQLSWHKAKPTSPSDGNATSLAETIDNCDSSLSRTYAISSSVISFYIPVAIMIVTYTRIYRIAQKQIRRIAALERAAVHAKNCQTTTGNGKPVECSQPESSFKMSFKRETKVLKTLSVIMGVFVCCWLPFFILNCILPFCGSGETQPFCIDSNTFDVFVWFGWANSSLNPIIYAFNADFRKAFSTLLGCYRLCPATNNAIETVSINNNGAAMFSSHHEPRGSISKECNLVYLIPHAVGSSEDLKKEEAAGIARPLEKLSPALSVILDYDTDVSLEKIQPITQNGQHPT

[12] = target: 5-hydroxytryptamine receptor 2C (Rattus norvegicus, UniProt P08909)
5-hydroxytryptamine receptor 2C, sequence (P08909 whole entry): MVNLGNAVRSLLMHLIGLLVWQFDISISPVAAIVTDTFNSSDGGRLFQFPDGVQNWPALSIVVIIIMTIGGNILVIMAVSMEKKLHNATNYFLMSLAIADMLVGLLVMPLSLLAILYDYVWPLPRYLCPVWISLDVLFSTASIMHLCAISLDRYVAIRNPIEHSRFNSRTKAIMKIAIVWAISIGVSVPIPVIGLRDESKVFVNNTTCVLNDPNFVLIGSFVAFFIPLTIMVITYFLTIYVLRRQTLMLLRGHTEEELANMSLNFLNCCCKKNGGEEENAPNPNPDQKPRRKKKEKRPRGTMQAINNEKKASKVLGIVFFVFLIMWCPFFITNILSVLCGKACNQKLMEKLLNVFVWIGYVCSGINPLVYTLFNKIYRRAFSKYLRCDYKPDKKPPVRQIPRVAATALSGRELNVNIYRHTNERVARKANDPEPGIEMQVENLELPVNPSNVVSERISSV

[13] = target: Alpha-2C adrenergic receptor (Homo sapiens, UniProt P18825)
Alpha-2C adrenergic receptor, sequence (P18825 whole entry): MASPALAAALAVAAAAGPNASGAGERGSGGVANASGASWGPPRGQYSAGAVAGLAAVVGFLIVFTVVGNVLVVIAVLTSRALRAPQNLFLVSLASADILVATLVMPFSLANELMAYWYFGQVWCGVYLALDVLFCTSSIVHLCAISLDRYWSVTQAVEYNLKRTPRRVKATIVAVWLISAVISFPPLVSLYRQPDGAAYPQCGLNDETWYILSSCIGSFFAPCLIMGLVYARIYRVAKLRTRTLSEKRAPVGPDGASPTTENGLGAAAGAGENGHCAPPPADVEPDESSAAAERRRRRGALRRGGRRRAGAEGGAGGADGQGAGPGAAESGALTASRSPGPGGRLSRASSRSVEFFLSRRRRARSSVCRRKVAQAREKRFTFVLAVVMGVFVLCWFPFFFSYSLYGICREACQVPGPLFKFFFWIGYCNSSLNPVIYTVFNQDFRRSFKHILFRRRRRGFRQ

[14] = target: Muscarinic acetylcholine receptor M4 (Homo sapiens, UniProt P08173)
[15] = target: Muscarinic acetylcholine receptor M1 (Homo sapiens, UniProt P11229)
[16] = target: Muscarinic acetylcholine receptor M2 (Homo sapiens, UniProt P08172)
D(3) dopamine receptor = D(3) dopamine receptor (Rattus norvegicus, UniProt P19020)
[17] = target: Muscarinic acetylcholine receptor M5 (Homo sapiens, UniProt P08912)
[18] = target: 5-hydroxytryptamine receptor 5A (Homo sapiens, UniProt P47898)
[19] = target: Muscarinic acetylcholine receptor M3 (Homo sapiens, UniProt P20309)

5-hydroxytryptamine receptor 1A, sequence (P08908 whole entry): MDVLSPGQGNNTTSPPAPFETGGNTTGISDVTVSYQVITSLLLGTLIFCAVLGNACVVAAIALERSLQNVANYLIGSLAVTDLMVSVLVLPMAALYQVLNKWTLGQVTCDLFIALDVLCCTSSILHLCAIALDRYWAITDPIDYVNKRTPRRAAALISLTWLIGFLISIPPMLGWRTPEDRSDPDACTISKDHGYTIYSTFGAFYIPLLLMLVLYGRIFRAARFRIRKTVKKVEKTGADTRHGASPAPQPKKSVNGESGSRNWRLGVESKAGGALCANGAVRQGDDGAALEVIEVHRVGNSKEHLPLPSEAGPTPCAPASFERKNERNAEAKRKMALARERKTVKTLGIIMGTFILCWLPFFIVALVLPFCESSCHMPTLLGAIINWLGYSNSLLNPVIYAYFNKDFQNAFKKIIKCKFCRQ
Alpha-2A adrenergic receptor, sequence (P08913 whole entry): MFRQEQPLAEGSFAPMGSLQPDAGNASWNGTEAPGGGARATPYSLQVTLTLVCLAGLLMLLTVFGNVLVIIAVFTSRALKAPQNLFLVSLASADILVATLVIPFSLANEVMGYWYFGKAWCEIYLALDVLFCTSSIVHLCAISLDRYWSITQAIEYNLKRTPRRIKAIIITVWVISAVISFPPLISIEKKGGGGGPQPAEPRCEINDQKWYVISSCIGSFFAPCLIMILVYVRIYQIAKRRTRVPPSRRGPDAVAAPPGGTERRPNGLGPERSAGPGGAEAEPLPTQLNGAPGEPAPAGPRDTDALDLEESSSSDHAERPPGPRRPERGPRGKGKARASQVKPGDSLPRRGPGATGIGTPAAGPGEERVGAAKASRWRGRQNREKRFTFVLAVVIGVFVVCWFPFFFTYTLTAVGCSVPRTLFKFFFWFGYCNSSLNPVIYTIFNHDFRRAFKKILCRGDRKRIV
5-hydroxytryptamine receptor 2A, sequence (P14842 whole entry): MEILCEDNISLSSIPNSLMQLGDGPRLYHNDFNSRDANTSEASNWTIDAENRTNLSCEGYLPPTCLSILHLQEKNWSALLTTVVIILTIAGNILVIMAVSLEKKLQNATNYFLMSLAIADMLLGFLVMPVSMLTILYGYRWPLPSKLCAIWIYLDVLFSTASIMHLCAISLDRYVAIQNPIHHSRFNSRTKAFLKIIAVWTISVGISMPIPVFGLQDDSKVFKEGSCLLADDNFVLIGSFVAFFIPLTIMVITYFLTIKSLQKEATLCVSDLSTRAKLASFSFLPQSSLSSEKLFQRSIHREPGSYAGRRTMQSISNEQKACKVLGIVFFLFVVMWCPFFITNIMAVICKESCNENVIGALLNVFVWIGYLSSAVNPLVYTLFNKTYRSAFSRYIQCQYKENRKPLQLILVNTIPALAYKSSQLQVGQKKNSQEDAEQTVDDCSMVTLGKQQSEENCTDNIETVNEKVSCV

OC(c1ccccc1)C1CCN(CCc2ccccc2)CC1 (centres undefined) [MDL-11939]
Ki [1]: 1420 nM
Ki [2]: 1590 nM
Ki [3]: 3420 nM
Ki [4]: 2.89 nM
Ki (D(4) dopamine receptor): 3930 nM
Ki [5]: 2600 nM
Ki [6]: 2750 nM
Ki (D(1B) dopamine receptor): 2870 nM
Ki (Histamine H1 receptor): 1600 nM
Ki [7]: 70.5 nM
Ki [8]: 1580 nM
Ki [9]: > 10000 nM
Ki [10]: > 10000 nM
Ki [11]: 1880 nM
Ki (D(1A) dopamine receptor): 327 nM
Ki [12]: 854 nM
Ki [13]: 1190 nM

CN(C)CCON=C(C=Cc1ccc(O)cc1)c1ccccc1F [NSC_6438382]
Ki [2]: 726 nM
Ki [14]: 3670 nM
Ki [3]: 2500 nM
Ki [4]: 0.951 nM
Ki [15]: 733 nM
Ki [6]: 3870 nM
Ki [16]: > 10000 nM
Ki (D(3) dopamine receptor): > 10000 nM
Ki [7]: 914 nM
Ki [9]: 739 nM
Ki [10]: 5620 nM
Ki [17]: 3010 nM
Ki (D(1A) dopamine receptor): > 10000 nM
Ki [12]: 8.24 nM
Ki [18]: 1750 nM
Ki [13]: 2120 nM
Ki [19]: 2390 nM
